Tests used:
[1] = target: T1, human sphingosine-1-phosphate receptor 1 (S1P1) (Homo sapiens, UniProt P21453); experiment: Inhibition of cAMP production (HTRF cAMP HiRange), S1P1 CHO-K1 cells; assay type: cell-based; conditions: for Emax: CHO-K1, efficacy normalized to maximum efficacy of fingolimod, read-out: hS1P1 CAMP SPAN; for EC50: read-out: hS1P1 CAMP pEC50 (converted)
Method in brief: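 Intracellular cAMP changes read by TR-FRET (HTRF HiRange, 1 h room temperature) after 30 min compound exposure at 37 °C. Cells: overnight-plated CHO-K1 stably expressing tagged human S1P1 with EA-β-arrestin2. Responses normalized to fingolimod.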
Target sequence in this assay (P21453 whole entry): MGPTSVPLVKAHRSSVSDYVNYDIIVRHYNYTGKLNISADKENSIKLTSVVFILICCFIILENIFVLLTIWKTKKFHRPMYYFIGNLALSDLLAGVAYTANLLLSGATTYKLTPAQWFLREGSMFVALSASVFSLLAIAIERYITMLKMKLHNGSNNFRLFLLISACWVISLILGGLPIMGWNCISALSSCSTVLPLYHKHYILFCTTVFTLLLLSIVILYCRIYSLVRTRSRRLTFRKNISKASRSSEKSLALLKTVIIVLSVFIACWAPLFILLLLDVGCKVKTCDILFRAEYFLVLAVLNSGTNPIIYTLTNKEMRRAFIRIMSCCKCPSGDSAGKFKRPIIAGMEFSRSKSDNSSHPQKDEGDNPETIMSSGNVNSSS

[2] = target: T1, human sphingosine-1-phosphate receptor 1 (S1P1); experiment: β-Arrestin2 recruitment assay (PathHunter), S1P1 CHO-K1 cells; assay type: cell-based; conditions: for Emax: efficacy normalized to maximum efficacy of fingolimod, read-out: hS1P1 B-arrestin2 SPAN; for EC50: β-arrestin2 recruitment, read-out: hS1P1 B-arrestin2 pEC50 (converted)
Experimental: Stable clonal Chinese hamster ovary K1 (CHO-K1) cells co-expressing EA-β-arrestin2 and the human sphingosine-1-phosphate receptor 1 (NM_001400, S1P1) with a C-terminal Prolink™ tag were purchased from DiscoverX corporation (Cat #: 93-0207C2).
Cell lines were cultured in AssayComplete™ Media 6 (DiscoverX Corporation, Cat #: 920018GF2) at 37° C. and 5% CO2 in a humidified CO2 and temperature-controlled incubator. To begin assay plating, cells were washed with Dulbecco's phosphate buffered saline (CellGro, Cat #: 21-031-CV) and lifted from the culturing flask by incubation (37° C., 5 min) with CellStripper (Cellgro, Cat #: 25-056-CI). […] Plated cells were incubated overnight at 37° C. and 5% CO2 in a humidified CO2 and temperature-controlled incubator.
Agonist-promoted β-arrestin2 recruitment to the sphingosine-1-phosphate 1 receptor was determined using the β-arrestin PathHunter® Detection kit (DiscoverX Corporation, Cat #: 93-0001). […] In cells that stably express these fusion proteins, stimulation with a cognate agonist results in the interaction of β-arrestin2 and the Prolink™-tagged GPCR. This allows the complementation of the two β-galactosidase fragments and results in the formation of a functional enzyme with β-galactosidase activity. […] Following a 60 minute incubation at 37° C. and 5% CO2 in a humidified CO2 and temperature-controlled incubator, the components of the β-arrestin PathHunter® Detection kit were added as per the manufacturer's instructions. After an hour incubation at room temperature, plates were analyzed by a BMG PheraStar microplate reader.
These values are normalized to fingolimod, a known agonist of the sphingosine-1-phosphate 1 receptor.
Target sequence in this assay (P21453 whole entry): as above
Target sequence in this assay (P32121 whole entry partner): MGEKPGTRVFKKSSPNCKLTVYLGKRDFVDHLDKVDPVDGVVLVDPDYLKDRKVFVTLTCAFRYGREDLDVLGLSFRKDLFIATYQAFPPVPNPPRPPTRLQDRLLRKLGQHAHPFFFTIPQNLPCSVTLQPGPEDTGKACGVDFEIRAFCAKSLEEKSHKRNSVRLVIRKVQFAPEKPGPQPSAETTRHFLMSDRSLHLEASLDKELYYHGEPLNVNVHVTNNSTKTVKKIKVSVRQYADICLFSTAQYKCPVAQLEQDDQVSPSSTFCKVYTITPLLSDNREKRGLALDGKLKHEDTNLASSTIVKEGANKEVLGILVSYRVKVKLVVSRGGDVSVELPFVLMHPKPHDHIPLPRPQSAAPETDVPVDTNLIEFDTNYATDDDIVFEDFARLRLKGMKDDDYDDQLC

[3] = inhibition of cAMP production, S1P1
[4] = inhibition of cAMP production, potency
[5] = CHO-K1, β-arrestin2 recruitment

SMILES | Emax [1] | EC50 [1, 3] | Emax ([2]; CHO-K1) | EC50 ([2]; S1P1) | Emax ([1]; inhibition of cAMP production) | EC50 [1, 4] | Emax [2, 5] | EC50 ([2]; potency)
CC(C)n1ccc2nc(-c3nc(-c4ccccc4Br)cs3)ccc21 [Compound 412, 4-(2-bromophenyl)-2-(1-isopropyl-1H-pyrrolo[3,2-b]pyridin-5-yl)thiazole] | > 75% | > 316 nM | < 75% | > 10 µM |  |  |  | 
Cc1ccncc1-c1nc(-c2ccc3c(c2)nnn3CC(C)(C)CO)no1 [Compound 541, 2,2-dimethyl-3-(5-(5-(4-methylpyridin-3-yl)-1,2,4-oxadiazol-3-yl)-1H-benzo[d] [1,2,3]triazol-1-yl)propan-1-ol] | < 75% | > 316 nM | < 75% | > 10 µM |  |  |  | 
CC(C)n1nnc2cc(-c3noc(-c4cccc5c4CCC5O)n3)ccc21 (centres unmarked) [Compound 636, 4-{3-[1-(propan-2-yl)-1H-1,2,3-benzotriazol-5-yl]-1,2,4-oxadiazol-5-yl}-2,3-dihydro-1H-inden-1-ol] | > 75% | < 316 nM | > 75% | < 10 µM |  |  |  | 
Cc1cncc(-c2nc(-c3ccc4c(c3)nnn4C(C)C)no2)n1 [Compound 229, 3-(1-isopropyl-1H-benzo[d][1,2,3]triazol-5-yl)-5-(6-methyl-pyrazin-2-yl)-1,2,4-oxadiazole] |  |  |  |  | < 75% | > 316 nM | < 75% | < 10 µM
CC(C)n1nnc2cc(-c3noc(-c4cccc5c4CCC5=O)n3)ccc21 [Compound 608, 4-{3-[1-(propan-2-yl)-1H-1,2,3-benzo-triazol-5-yl]-1,2,4-oxadiazol-5-yl}-2,3-dihydro-1H-inden-1-one] | > 75% | < 316 nM | > 75% | < 10 µM |  |  |  | 
COc1ccc(-c2nc(-c3ccc4c(ccn4C(C)C)c3)no2)cc1 [Compound 393, 3-(1-isopropyl-1H-indol-5-yl)-5-(4-methoxyphenyl)-1,2,4-oxadiazole] | < 75% | > 316 nM | < 75% | > 10 µM |  |  |  | 
CC(C)Nc1ccc(-c2nc(-c3ccc4c(c3)CCNC4=O)no2)cc1C#N [Compound 442, 2-(isopropylamino)-5-(3-(1-oxo-1,2,3,4-tetrahydroisoquinolin-6-yl)-1,2,4-oxadiazol-5-yl)benzonitrile] | > 75% | < 316 nM | > 75% | < 10 µM |  |  |  | 
CC(C)n1nnc2cc(-c3nc(-c4ccccc4F)co3)ccc21 [Compound 21, 5-[4-(2-fluorophenyl)-1,3-oxazol-2-yl]-1-(propan-2-yl)-1H-1,2,3-benzotriazole] |  |  |  |  | > 75% | > 316 nM | > 75% | > 10 µM
CCC1(CC)CC(=O)c2cc(-c3nc(-c4cccnc4C)no3)ccc2O1 [Compound 564, 2,2-diethyl-6-(3-(2-methylpyridin-3-yl)-1,2,4-oxadiazol-5-yl)chroman-4-one] | > 75% | < 316 nM | > 75% | < 10 µM |  |  |  | 
COc1ccccc1-c1noc(-c2ccc3c(ccn3C(C)C)c2)n1 [Compound 372, 5-(1-isopropyl-1H-indol-5-yl)-3-(2-methoxy-phenyl)-1,2,4-oxadiazole] | > 75% | < 316 nM | > 75% | < 10 µM |  |  |  | 
CC(C)n1ccc2cc(-c3noc(-c4cccc(F)c4)n3)ccc21 [Compound 394, 5-(3-fluorophenyl)-3-(1-isopropyl-1H-indol-5-yl)-1,2,4-oxadiazole] | < 75% | > 316 nM | < 75% | < 10 µM |  |  |  | 
CCC1CC(=O)c2ccc(-c3nc(-c4cccnc4)no3)cc2O1 (centres unmarked) [Compound 588, 2-ethyl-7-[3-(pyridin-3-yl)-1,2,4-oxadiazol-5-yl]-3,4-dihydro-2H-1-benzopyran-4-one] | < 75% | > 316 nM | < 75% | > 10 µM |  |  |  | 
CSc1cccc(-c2nc(-c3ccc4c(c3)nnn4C3CCCC3)no2)c1 [Compound 47, 3-(1-cyclopentyl-1H-benzo[d][1,2,3]triazol-5-yl)-5-(3-(methylthio)phenyl)-1,2,4-oxadiazole] |  |  |  |  | < 75% | > 316 nM | < 75% | > 10 µM
CC1(C)Oc2ccc(-c3nc(-c4cccnc4)no3)cc2C1=O [Compound 481, 2,2-dimethyl-5-[3-(pyridin-3-yl)-1,2,4-oxadiazol-5-yl]-2,3-dihydro-1-benzofuran-3-one] | > 75% | > 316 nM | < 75% | < 10 µM |  |  |  | 
CC(C)Nc1ccc(-c2nnc(-c3ccc4c(c3)C(=O)NCC4)o2)cc1C#N [Compound 638, 5-[5-(1-oxo-1,2,3,4-tetrahydroisoquinolin-7-yl)-1,3,4-oxadiazol-2-yl]-2-[(propan-2-yl)amino]benzonitrile] | < 75% | < 316 nM | < 75% | > 10 µM |  |  |  | 
CCC1(CC)CC(=O)c2cc(-c3nsc(-c4ccccc4OC)n3)ccc2O1 [Compound 222, 2,2-diethyl-6-(5-(2-methoxyphenyl)-1,2,4-thiadiazol-3-yl)chroman-4-one] |  |  |  |  | > 75% | > 316 nM | < 75% | < 10 µM
CC(C)Nc1ccc(-c2nnc(-c3ccc4c(c3)ncn4C)o2)cc1C#N [Compound 572, 5-[5-(1-methyl-1H-1,3-benzodiazol-5-yl)-1,3,4-oxadiazol-2-yl]-2-[(propan-2-yl)amino]benzonitrile] | < 75% | > 316 nM | > 75% | > 10 µM |  |  |  | 
Cc1nccnc1-c1nc(-c2ccc3c(c2)nnn3C(C)C)no1 [Compound 44, 3-(1-isopropyl-1H-benzo[d][1,2,3]triazol-5-yl)-5-(3-methylpyrazin-2-yl)-1,2,4-oxadiazole] |  |  |  |  | < 75% | > 316 nM | < 75% | > 10 µM
CCC1(CC)CC(=O)c2cc(-c3nc(-c4cncnc4)no3)ccc2O1 [Compound 620, 2,2-diethyl-6-(3-(pyrimidin-5-yl)-1,2,4-oxadiazol-5-yl)chroman-4-one] | < 75% | < 316 nM | > 75% | < 10 µM |  |  |  | 
O=C1CC(CO)(CO)Oc2ccc(-c3nc(-c4cccnc4)no3)cc21 [Compound 478, 2,2-bis(hydroxymethyl)-6-[3-(pyridin-3-yl)-1,2,4-oxadiazol-5-yl]-3,4-dihydro-2H-1-benzopyran-4-one] | < 75% | > 316 nM | < 75% | > 10 µM |  |  |  | 
C=CCn1nc2ccc(-c3nc(-c4ccccc4)no3)cc2n1 [Compound 39, 5-(3-phenyl-1,2,4-oxadiazol-5-yl)-2-(prop-2-en-1-yl)-2H-1,2,3-benzotriazole] |  |  |  |  | < 75% | > 316 nM | < 75% | > 10 µM
COc1ccccc1-c1noc(-c2ccc3[nH]ncc3c2)n1 [Compound 371, 5-(1H-indazol-5-yl)-3-(2-methoxyphenyl)-1,2,4-oxadiazole] |  |  |  |  | < 75% | > 316 nM | < 75% | > 10 µM
CCC1(CC)CC(=O)c2cc(-c3nc(-c4ccc5ncoc5c4)no3)ccc2O1 [Compound 622, 6-(3-(benzo[d]oxazol-6-yl)-1,2,4-oxadiazol-5-yl)-2,2-diethyl-chroman-4-one] | > 75% | < 316 nM | < 75% | > 10 µM |  |  |  | 
COc1ncccc1-c1noc(-c2ccc3c(c2)nnn3C(C)C)n1 [Compound 619, 5-(1-isopropyl-1H-benzo[d][1,2,3]triazol-5-yl)-3-(2-methoxy-pyridin-3-yl)-1,2,4-oxadiazole] | > 75% | < 316 nM | > 75% | < 10 µM |  |  |  | 
CCC1(CC)CC(=O)c2cc(-c3nc(-c4ccc5c(c4)CC(=O)N5)no3)ccc2O1 [Compound 416, 5-(5-(2,2-diethyl-4-oxochroman-6-yl)-1,2,4-oxadiazol-3-yl)indolin-2-one] | > 75% | < 316 nM | > 75% | < 10 µM |  |  |  | 
COCC1(COC)CC(=O)c2cc(-c3nc(-c4ccncc4)no3)ccc2O1 [Compound 494, 2,2-bis(methoxy-methyl)-6-[3-(pyridin-4-yl)-1,2,4-oxadiazol-5-yl]-3,4-dihydro-2H-1-benzopyran-4-one] | < 75% | > 316 nM | < 75% | < 10 µM |  |  |  | 

Source: patent US20230114241A1, “METHODS OF TREATING EPILEPSY USING THE SAME” (Trevena, Inc., priority 2019, published 2023)
